One experiment concerns E. maxima. The experiment can be described thus: E. maxima infection of chickens: performance and fecal oocyst shedding (Example 8). It is filed as in vivo. As to conditions: E. maxima-infected chickens, 90 mg/kg feed of monensin. The text has this: Newly hatched chickens from Longnecker's hatchery, Elizabethtown, PA were housed in a Petersime brooder units and provided with feed and water ad libitum. All chickens were weighed and allocated to a cage. Per treatment, 60 chickens (5 birds/cage=12 replication) were used. Initial body weight was the same among treatments. For E. maxima infection freshly propagated E. maxima (ARS strain) were used to infect the birds. On d 14 after hatch, the birds were infected with 10,000 E. maxima oocysts through oral gavage. The experimental treatments were the following: [1]=Negative control (NC), non infected and untreated chicken; [2]=Positive control (PC)=[1]+infection; […] [4]=[2]+55 ppm of dried Glycyrrhiza glabra leaves; [5]=[2]+160 ppm of dried Glycyrrhiza glabra leaves. Monensin is the current standard used to control coccidiosis. […] Oocyst shedding: Faeces from each group was collected separately from 6-8 days post infection (dpi) for coccidiosis. To count coccidia oocysts, various dilutions were made initially to determine the optimum dilutions for enumeration of oocysts for each sample. Oocysts were counted microscopically using a McMaster counting chamber using a sodium chloride flotation method. The total number of oocysts shed per chicken were calculated using the formula: total oocysts/bird=(oocyst count×dilution factor×fecal sample volume/counting chamber volume)/number of birds per cage.

Experiment [1] has as its system Alpha mouse liver 12 cells (AML12). It is filed as cell-based.

The values below come from patent US20260273007A1, “FEED ADDITIVE FOR IMPROVING PERFORMANCE OF FARMING ANIMALS” (Nutreco IP Assets B.V., priority 2023, published 2026).

As to `CC[C@@]1([C@@H]2O[C@@H]([C@H]3O[C@@](O)(CO)[C@H](C)C[C@@H]3C)C[C@@H]2C)CC[C@H]([C@]2(C)CC[C@]3(C[C@H](O)[C@@H](C)[C@@H]([C@@H](C)[C@@H](OC)[C@H](C)C(=O)O)O3)O2)O1` [MO, monensin], in the experiment with E. maxima, the “ADFI d 15 to 19 (0 to 4 dpi)” value was found to be 90 g, the “ADFI d 15 to 21 (0 to 6 dpi)” value worked out at 93.5 g, the “ADFI d 15 to 23 (0 to 8 dpi)” value is recorded as 94.3 g and the “ADG d 15 to 19 (0 to 4 dpi)” value turned out to be 76.3 g. Further, in the experiment on E. maxima, the “ADG d 15 to 21 (0 to 6 dpi)” value is listed as 72.9 g, the “ADG d 15 to 23 (0 to 8 dpi)” value is recorded as 79.3 g, the “BW d 19 (4 dpi)” value is reported as 890 g and the “BW d 21 (6 dpi)” value is on record as 1,023 g. Besides, in the experiment with E. maxima, the “BW d 23 (8 dpi)” value is 1,220 g, the “FCR d 15 to 19 (0 to 4 dpi)” value is 1.191, the “FCR d 15 to 21 (0 to 6 dpi)” value is reported as 1.31 and the “FCR d 15 to 23 (0 to 8 dpi)” value came out at 1.21. Moreover, in the experiment with E. maxima, the Lesion score result was “reduced”. Further, the “Number of oocysts (fecal oocyst shedding, FIG. 2)” value with E. maxima (faeces 6-8 dpi) is reported as “reduced”.

Take Aflatoxin B1: the “Cell viability (%)” value in experiment [1] was 51.8%.
